Results: patent US11548875B2, “Inhibitor compounds for male contraception” (University of Washington, priority 2018, dated 2023)
Read-outs that look alike come from different tables or passages of the source.

Experiments:
ALDH1A1 [1] = target: T1, ALDH1A1 (Homo sapiens, UniProt P00352); assay: Cell-based enzyme assay, retinoic acid production in ALDH1A1/H1299 cells
T1 sequence (P00352 1-501): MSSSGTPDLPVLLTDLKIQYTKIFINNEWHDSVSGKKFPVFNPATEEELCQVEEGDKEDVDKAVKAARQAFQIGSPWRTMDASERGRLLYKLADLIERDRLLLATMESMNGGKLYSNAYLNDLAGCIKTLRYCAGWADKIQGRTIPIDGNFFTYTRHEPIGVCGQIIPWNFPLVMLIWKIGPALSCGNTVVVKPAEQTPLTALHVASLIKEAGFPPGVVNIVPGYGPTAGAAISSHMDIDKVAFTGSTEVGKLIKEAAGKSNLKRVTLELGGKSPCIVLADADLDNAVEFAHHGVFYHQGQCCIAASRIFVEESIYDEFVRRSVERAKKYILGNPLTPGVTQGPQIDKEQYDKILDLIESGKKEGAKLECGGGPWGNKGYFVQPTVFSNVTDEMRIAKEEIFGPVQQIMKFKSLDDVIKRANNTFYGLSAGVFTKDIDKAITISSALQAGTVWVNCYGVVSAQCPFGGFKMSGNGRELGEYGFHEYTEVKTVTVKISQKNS
Protocol: (§1) ALDH1A1 cDNA clone was purchased transfection-ready, and ALDH1A2 full-length cDNA was subcloned into pcDNA3, a mammalian expression vector. ALDH1A1 and ALDH1A2 were transfected into H1299 cells (CRL5803, ATCC) using Lipofectamine 3000 (Invitrogen) following the manufacturer's instructions. Stably transfected cells were selected with G418 (1.2 mg/ml) and referred to as ALDH1A1/H1299 and ALDH1A2/H1299. For the cell-based enzyme assays,
(§2) H1299 cells were routinely grown in RPMI-1640 (ATCC) supplemented with 10% fetal bovine serum (Atlanta Biologicals) in a 37 C, 5% CO2, moisture-saturated atmosphere. H1299, ALDH1A1/H1299 and ALDH1A2/H1299 cells were seeded into 12-well plates (1×10^5 cells/well) and grown for 2 days to confluence. Confluent cells were treated for 20 hours in the above media excluding serum with 2 μM all-trans-retinal, and varying concentrations of inhibitors. Serum-free media was used for the treatment period to avoid retinoic acid in serum. Retinoic acid concentrations were determined from cells and media, and specificity of inhibitors was determined by comparing retinoic acid levels in the presence and absence of the inhibitors in ALDH1A1- vs. ALDH1A2-expressing cells.

ALDH1A2 [2] = target: T2, ALDH1A2 (Homo sapiens, UniProt O94788); assay: Cell-based enzyme assay, retinoic acid production in ALDH1A2/H1299 cells
T2 sequence (O94788 1-518): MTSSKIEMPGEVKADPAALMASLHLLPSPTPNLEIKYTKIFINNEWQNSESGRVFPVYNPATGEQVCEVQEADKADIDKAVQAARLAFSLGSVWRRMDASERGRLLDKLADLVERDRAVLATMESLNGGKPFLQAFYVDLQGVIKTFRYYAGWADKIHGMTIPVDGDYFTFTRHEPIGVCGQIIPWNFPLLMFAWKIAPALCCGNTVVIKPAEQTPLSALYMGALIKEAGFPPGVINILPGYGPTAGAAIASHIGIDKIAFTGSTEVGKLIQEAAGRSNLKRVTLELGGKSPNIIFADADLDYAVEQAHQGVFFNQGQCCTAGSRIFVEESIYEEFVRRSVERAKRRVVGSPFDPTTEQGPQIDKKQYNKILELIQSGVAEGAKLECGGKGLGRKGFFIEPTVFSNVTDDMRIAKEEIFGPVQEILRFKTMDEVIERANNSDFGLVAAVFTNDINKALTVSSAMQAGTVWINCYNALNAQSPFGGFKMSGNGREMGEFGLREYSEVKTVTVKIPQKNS
Protocol: as §1, §2

ALDH1A2 [3] = target: T2, ALDH1A2; assay: Inhibitor screening using purified enzymes: ALDH1A2 activity, retinoic acid production by HPLC (5 uM initial screen, then IC50); format: biochemical; design: histidine-tag (C); made in house; host or cells: bacterial expression (pET28 vector, IPTG induction); details: purified enzyme
Summary of the method: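 Purified His-tagged human enzymes in 10 mM HEPES pH 8.0, 150 mM KCl, 2 mM EDTA with 2 mM NAD, all-trans-retinal substrate; retinoic acid quantified by HPLC. ALDH1A2 initial screen: 1 μg enzyme, 5 μM retinal, 5 μM inhibitor, 15 min, 37° C; IC50 runs: 0.5 μg enzyme, 0.5 μg retinal, 5 min, 37° C.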

ALDH1A1 [4] = target: T1, ALDH1A1; assay: Inhibitor screening using purified enzymes: ALDH1A1 activity, retinoic acid production by HPLC; format: biochemical; details: purified enzyme
Text: ALDHs were cloned into bacterial expression vector for in vitro enzyme assays and into mammalian expression vectors for cell-based enzyme assays. Human ALDH1A1 cDNA and human ALDH2 cDNA were purchased from OriGene (SC321535) and Open Biosystems (MHS4771-99611182), respectively. and human ALDH1A2 cDNA was cloned from human testis RNA using RT-PCR (Population Division of the Department of Economic and Social Affairs of the United Nations Secretariat. World Population prospects: the 2008 revision. Available at http://www.un.org/esa/population/ (Retrieved Sep. 30, 2011)). For bacterial expression, an open reading frame of ALDH1A1 and ALDH2 were subcloned into the pETite vector (Lucigen) with a 5′ histidine-tag and that of ALDH1A2 into a pET28 vector (Novagen) with a 3′ histidine-tag. Correct frame and sequences were verified through DNA sequencing (UW DNA sequencing facility). ALDHs were induced with 1 mM IPTG and purified using His.Bind resin (Novagen, San Diego, Calif.) and stored in a buffer containing 20 mM Hepes (pH 8), 150 mM KCl and 1 mM EDTA as previously described (Fierce, Y., de Morais Vieira, M., Piantedosi, R., Wyss, A., Blaner, W. S., and Paik, J. (2008) In vitro and in vivo characterization of retinoid synthesis from beta-carotene. Archives of biochemistry and biophysics 472, 126-138).
ALDH1A1 and ALDH1A2 activity was determined as previously reported (Beedle M T, Stevison F, Zhong G, Topping T, Hogarth C, Isoherranen N, Griswold M D. Sources of All-Trans Retinal Oxidation Independent of the Aldehyde Dehydrogenase 1A Isozymes Exist in the Postnatal Testis. Biol Reprod. 2018 Sep. 21. doi: 10.1093/biolre/ioy200). Briefly, purified enzymes were incubated in a buffer containing 10 mM HEPES buffer (pH 8.0), 150 mM potassium chloride and 2 mM EDTA with 2 mM NAD. Retinoic acid production was determined using HPLC as previously reported (Amory J K, Muller C H, Shimshoni A J, Isoherranen N, Paik J, Moreb J S, Amory D W, Evanoff R, Goldstein A S, Griswold M D. Suppression of spermatogenesis by bisdichloroacetyldiamines is mediated by inhibition of testicular retinoic acid biosynthesis. Journal of Andrology 2011; 32(1):111-119). Inhibitors were diluted in DMSO and added to the reactions. […] For initial screening of inhibitors for ALDH1A2, 1 μg ALDH1A2, 5 μM all-trans-retinal and 5 μM inhibitors were incubated for 15 min at 37° C. […] For this purpose, 0.5 μg ALDH1A2 and […] were incubated for 5 minutes at 37° C. with varying concentrations of inhibitors. To determine specificity toward ALDH1A2, the IC50 for […]

ALDH2 = target: T3, ALDH2 (Homo sapiens, UniProt P05091); assay: Purified ALDH2 assay with propanal, NADH fluorescence; format: biochemical; details: purified enzyme
T3 construct: histidine-tag (N); made in house; host or cells: bacterial expression (pETite vector, IPTG induction)
T3 sequence (P05091 18-517): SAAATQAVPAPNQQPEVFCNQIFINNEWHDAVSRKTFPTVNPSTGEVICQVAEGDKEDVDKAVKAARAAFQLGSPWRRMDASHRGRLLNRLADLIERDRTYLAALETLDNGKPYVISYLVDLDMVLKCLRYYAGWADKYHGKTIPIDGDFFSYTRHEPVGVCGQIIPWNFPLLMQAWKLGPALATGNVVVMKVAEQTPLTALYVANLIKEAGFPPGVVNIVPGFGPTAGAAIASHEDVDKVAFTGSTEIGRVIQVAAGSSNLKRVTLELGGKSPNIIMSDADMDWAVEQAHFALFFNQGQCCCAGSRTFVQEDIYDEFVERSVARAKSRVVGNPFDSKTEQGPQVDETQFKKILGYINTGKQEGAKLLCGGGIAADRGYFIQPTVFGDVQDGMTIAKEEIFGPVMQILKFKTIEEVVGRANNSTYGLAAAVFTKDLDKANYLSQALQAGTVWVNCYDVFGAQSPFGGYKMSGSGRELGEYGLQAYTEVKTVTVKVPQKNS
Summary of the method: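 His-tagged human ALDH2 expressed in bacteria and purified. 2 μg enzyme incubated with 20 μM propanal and varying inhibitor concentrations at room temperature. Activity read as NADH fluorescence (Ex 350/Em 460 nm), with initial velocity from two consecutive readings over 1 minute.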

mice = details: cited from earlier work

Row | Compound | EC50 (ALDH1A1 [1]; cell-based) [µM] | EC50 (ALDH1A2 [2]; cell-based) [µM] | IC50 (ALDH1A2 [3]) [µM] | IC50 (ALDH1A1 [4]) [µM] | IC50 (ALDH2) [µM] | EC50 (ALDH1A1 [1]) [µM] | EC50 (ALDH1A2 [2]) [µM] | fertility (mice; mice, oral) | liver toxicity (mice; mouse, in vivo) | effect on spermatogenesis (mice; oral doses as low as 5 mg/kg for seven days)
1 | 3-{4-[(Difluoroacetyl)amino]phenyl}-1-(4-cyanophenyl)-N-(3-fluorophenyl)-1H-pyrazole-4-carboxamide [Compound 279] | 0.056 | 0.017 | 0.61 | 0.029 | – | – | – | – | – | –
2 | O=C(Nc1cccc(F)c1)c1cn(-c2ccccc2)nc1-c1ccc(CNC(=O)C(Cl)Cl)cc1 [Compound 8-64, 3-(4-{[(Dichloroacetyl)amino]methyl}phenyl)-N-(3-fluorophenyl)-1-phenyl-1H-pyrazole-4-carboxamide] | – | – | 0.015 | 2 | – | – | – | – | – | –
3 | Cc1ccc(NC(=O)c2cn(-c3ccccc3)nc2-c2ccc(F)cc2)cc1 [Compound 131, 3-(4-Fluorophenyl)-N-(4-methylphenyl)-1-phenyl-1H-pyrazole-4-carboxamide] | – | – | 3.02 | 0.388 | 18.8 | – | – | – | – | –
4 | Cc1ccccc1-c1nn(-c2ccccc2)cc1C(=O)Nc1cccc(F)c1 [Compound 149, N-(3-Fluorophenyl)-3-(2-methylphenyl)-1-phenyl-1H-pyrazole-4-carboxamide] | – | – | 2.15 | 0.601 | 4.6 | – | – | – | – | –
5 | CON(C)C(=O)c1ccc(-c2nn(-c3ccc(C#N)cc3)cc2C(=O)Nc2cccc(F)c2)cc1 [Compound 296] | 0.542 | 0.023 | 0.15 | 9.44 | – | – | – | – | – | –
6 | N#Cc1ccc(-n2cc(C(=O)Nc3cccc(F)c3)c(-c3ccc(NC(=O)C(Cl)Cl)cc3)n2)cc1 [Compound 310, 3-{4-[(Dichloroacetyl)amino]phenyl}-1-(4-cyanophenyl)-N-(3-fluorophenyl)-1H-pyrazole-4-carboxamide] | 0.14 | 0.245 | 0.065 | 0.009 | – | – | – | – | – | –
7 | C=C(C(=O)OC)c1ccc(-c2nn(-c3ccc(C#N)cc3)cc2C(=O)Nc2cccc(F)c2)cc1 [Compound 312, Methyl 2-(4-{4-[(3-fluorophenyl)carbamoyl]-1-4-cyanophenyl-1H-pyrazol-3-yl}phenyl)prop-2-enoate] | 0.251 | 12.5 | 1.2 | 3.61 | – | – | – | – | – | –
8 | CC(=O)c1ccc(-c2nn(-c3ccc(C#N)cc3)cc2C(=O)Nc2cccc(F)c2)cc1 [Compound 316, 3-(4-Acetylphenyl)-N-(3-fluorophenyl)-1-(4-cyanophenyl)-1H-pyrazole-4-carboxamide] | 0.28 | 0.123 | 0.6 | 10.2 | – | – | – | – | – | –
9 | Cn1cccc1C(=O)N1CCN(c2ccc(N)c(N3CCCCCC3)c2)CC1 [Compound 379, {4-[4-Amino-3-(azepan-1-yl)phenyl]piperazin-1-yl}(1-methyl-1H-pyrrol-2-yl)methanone] | – | – | 2.58 | 0.714 | – | 0.736 | 2.58 | – | – | –
10 | Cn1cccc1C(=O)N1CCN(c2ccc(NC(=O)C(Cl)Cl)c(N3CCCCC3)c2)CC1 [Compound 380, {4-[4-Dichloroacetamido-3-(piperidin-1-yl)phenyl]piperazin-1-yl}(1-methyl-1H-pyrrol-2-yl)methanone] | – | – | 8.7 | 0.023 | – | 0.099 | > 5 | – | – | –
11 | BMS-189453 | – | – | – | – | – | – | – | infertile after four weeks of treatment | hepatic inflammation | potently inhibits spermatogenesis
